Assay results published in US20250059179A1, “Heterocyclic Compounds and Methods of Use” (AMGEN INC., priority 2021, published 2025).

Assays:
[1] = target: His-tagged KRAS G12D protein (Homo sapiens, UniProt P01116, G12D); test: KRAS G12D TR-FRET Assay; assay type: binding; details: biotinylated KRPep-2d substrate, 10 μM GDP;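 further: europium anti-His antibody paired with streptavidin-d2 as FRET partners, initial 30 min incubation, then peptide 1 h and detection reagents 1 h, all at room temperature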
Chain of His-tagged KRAS G12D protein (P01116 1-188 isoform P01116-2 G12D): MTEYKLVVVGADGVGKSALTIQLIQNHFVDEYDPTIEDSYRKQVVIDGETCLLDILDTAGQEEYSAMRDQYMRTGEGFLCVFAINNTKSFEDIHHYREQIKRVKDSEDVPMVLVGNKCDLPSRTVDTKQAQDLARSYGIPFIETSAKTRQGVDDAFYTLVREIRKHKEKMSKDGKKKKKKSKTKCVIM

[2] = target: GDP-bound KRAS protein (aa 1-169), containing both G12D and C118A amino acid substitutions (Homo sapiens, UniProt P01116, C118A/G12D); test: KRAS G12D Coupled Nucleotide Exchange Assay; assay type: biochemical; details: 2 h compound pre-incubation; SOS-mediated nucleotide exchange, cRAF AlphaScreen readout;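 further: IC50 obtained by fitting the AlphaScreen signal with a four-parameter logistic curve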
Chain of GDP-bound KRAS protein (aa 1-169), containing both G12D and C118A amino acid substitutions (P01116 1-169 isoform P01116-2 G12D/C118A): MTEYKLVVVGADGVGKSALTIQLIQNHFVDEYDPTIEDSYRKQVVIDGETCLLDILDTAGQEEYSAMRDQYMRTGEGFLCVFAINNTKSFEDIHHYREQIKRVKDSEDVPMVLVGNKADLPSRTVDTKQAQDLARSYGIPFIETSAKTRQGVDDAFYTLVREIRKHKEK

| Compound | IC50 [1] [µM] | Avg 2 h Coupled Exchange IC50 [2] [µM] |
| --- | --- | --- |
| CN1CCC[C@H]1CNc1nc(N2CCNCC2)c2cc(Cl)c(-c3cccc4sc(N)nc34)c(F)c2n1 [Example 70, 4-(6-chloro-8-fluoro-2-((((S)-1-methyl-pyrrolidin-2-yl)methyl)amino)-4-(piperazin-1-yl)quinazolin-7-yl)benzo[d] thiazol-2-amine] | 10.7 | 2.14 |
| CC(=O)N1CCC[C@H]1COc1nc(N2CCNCC2)c2cc(Cl)c(-c3cccc4sc(N)nc34)c(F)c2n1 [Example 71, 1-((2S)-2-(((7-(2-aminobenzo[d]thiazol-4-yl)-6-chloro-8-fluoro-4-(piperazin-1-yl)quinazolin-2-yl)oxy)methyl)pyrrolidin-1-yl)ethan-1-one] | 3.98 | 2.53 |
| Nc1nc2c(-c3c(Cl)cc4c(N5CCNCC5)nc(OCC56CCC(CC5)N6)nc4c3F)cccc2s1 [Example 75, 4-(2-(((1s,4s)-7-azabicyclo[2.2.1]heptan-1-yl)methoxy)-6-chloro-8-fluoro-4-(piperazin-1-yl)quinazolin-7-yl)benzo[d] thiazol-2-amine] | 1.85 | 0.797 |
| CCN1CCC(Oc2nc(N3CCNCC3)c3cc(Cl)c(-c4cccc5sc(N)nc45)c(F)c3n2)CC1 [Example 128, 4-(6-chloro-2-((1-ethylpiperidin-4-yl)oxy)-8-fluoro-4-(piperazin-1-yl)quinazolin-7-yl)benzo[d]thiazol-2-amine] | 1.48 | 0.411 |
| Cc1cc(-c2c(Cl)cc3c(N4CCNCC4)nc(OC[C@@H]4CCCN4C)nc3c2F)c2nc(N)sc2c1 [Example 129, 4-(6-chloro-8-fluoro-2-(((S)-1-methylpyrrolidin-2-yl)methoxy)-4-(piperazin-1-yl)quinazolin-7-yl)-6-methylbenzo[d]thiazol-2-amine] | 5.3 | 1.09 |
| CN1CCC[C@H]1COc1nc(N2CCNCC2)c2cc(Cl)c(-c3ccc(C(F)(F)F)c4sc(N)nc34)c(F)c2n1 [Example 131, 4-(6-chloro-8-fluoro-2-(((S)-1-methylpyrrolidin-2-yl)methoxy)-4-(piperazin-1-yl)quinazolin-7-yl)-7-(trifluoromethyl)benzo [d]thiazol-2-amine] | 1.4 | 0.735 |
| CN1CCC[C@H]1COc1nc(N2CCNCC2)c2cc(F)c(-c3cccc4sc(N)nc34)c(F)c2n1 [Example 134, 4-(6,8-difluoro-2-(((S)-1-methylpyrrolidin-2-yl)methoxy)-4-(piperazin-1-yl)quinazolin-7-yl)benzo[d]thiazol-2-amine] | 2.39 | 0.391 |
| CC1=C(c2nc(OC[C@@H]3CCCN3C)nc3c(F)c(-c4cccc5sc(N)nc45)c(Cl)cc23)CCNC1 [Example 147, 4-(6-chloro-8-fluoro-4-(5-methyl-1,2,3,6-tetrahydropyridin-4-yl)-2-(((S)-1-methylpyrrolidin-2-yl)methoxy)quinazolin-7-yl)benzo[d]thiazol-2-amine] | 11.2 | 3.55 |

These reach a lower IC50 [1]. Values come first.

| IC50 [1] [µM] | Avg 2 h Coupled Exchange IC50 [2] [µM] | Compound |
| --- | --- | --- |
| 0.011 | 0.003 | Cc1c(-c2ccc(F)c3sc(N)nc23)ccc2c(N3C[C@H]4CC[C@@H](C3)N4)nc(OC[C@@]34CCCN3C[C@H](F)C4)nc12 [Example 139, 4-(4-((1R,5S)-3,8-diazabicyclo[3.2.1]octan-3-yl)-2-(((2R,7aS)-2-fluorotetrahydro-1H-pyrrolizin-7a(5H)-yl)methoxy)-8-methylquinazolin-7-yl)-7-fluorobenzo[d]thiazol-2-amine] |
| 0.012 | 0.003 | Nc1nc2c(-c3ccc4c(N5C[C@H]6CC[C@@H](C5)N6)nc(OC[C@@]56CCCN5C[C@H](F)C6)nc4c3F)ccc(F)c2s1 [Example 140, 4-(4-((1R,5S)-3,8-diazabicyclo[3.2.1]octan-3-yl)-8-fluoro-2-(((2R,7aS)-2-fluorotetrahydro-1H-pyrrolizin-7a(5H)-yl)methoxy)quinazolin-7-yl)-7-fluorobenzo[d]thiazol-2-amine] |
| 0.002 | 0.002 | Nc1nc2c(-c3c(F)cc4c(N5C[C@H]6CC[C@@H](C5)N6)nc(OC[C@@]56CCCN5C[C@H](F)C6)nc4c3F)ccc(F)c2s1 [Example 141, 4-(4-((1R,5S)-3,8-diazabicyclo [3.2.1]octan-3-yl)-6,8-difluoro-2-(((2R,7aS)-2-fluorotetrahydro-1H-pyrrolizin-7a(5H)-yl)methoxy)quinazolin-7-yl)-7-fluorobenzo[d]thiazol-2-amine] |
| 0.004 | 0.007 | Nc1nc2c(-c3c(F)cc4c(N5[C@@H]6CC[C@H]5CNC6)nc(OC[C@@]56CCCN5C[C@H](F)C6)nc4c3F)ccc(F)c2s1 [Example 142, 4-(4-((1R,5S)-3,8-diazabicyclo[3.2.1]octan-8-yl)-6,8-difluoro-2-(((2R,7aS)-2-fluorotetrahydro-1H-pyrrolizin-7a(5H)-yl)methoxy)quinazolin-7-yl)-7-fluorobenzo[d]thiazol-2-amine] |
| 0.01 | 0.008 | Nc1nc2c(-c3c(F)cc4c(N5C[C@@H]6CC[C@H]5CN6)nc(OC[C@@]56CCCN5C[C@H](F)C6)nc4c3F)ccc(F)c2s1 [Example 143, 4-(4-((1S,4S)-2,5-diazabicyclo[2.2.2]octan-2-yl)-6,8-difluoro-2-(((2R,7aS)-2-fluorotetrahydro-1H-pyrrolizin-7a(5H)-yl)methoxy)quinazolin-7-yl)-7-fluorobenzo[d]thiazol-2-amine] |
| 0.187 | 0.04 | Cc1cc2c(N3CCNCC3)nc(OC[C@@H]3CCCN3C)nc2c(F)c1-c1cccc2sc(N)nc12 [Example 155, 4-(8-Fluoro-6-methyl-2-(((S)-1-methylpyrrolidin-2-yl)methoxy)-4-(piperazin-1-yl)quinazolin-7-yl)benzo[d]thiazol-2-amine] |
| 0.365 | 0.189 | CN1CCC[C@H]1COc1nc(N2CCNCC2)c2cc(C#N)c(-c3cccc4sc(N)nc34)c(F)c2n1 [Example 156, 7-(2-Aminobenzo[d]thiazol-4-yl)-8-fluoro-2-(((S)-1-methylpyrrolidin-2-yl)methoxy)-4-(piperazin-1-yl)quinazoline-6-carbonitrile] |
| 0.073 | 0.023 | CN1CCC[C@H]1COc1nc2c(F)c(-c3ccc(F)c4sc(N)nc34)c(Cl)cc2c(N2CCNCC2)c1C#N [Example 157, 7-(2-Amino-7-fluorobenzo[d]thiazol-4-yl)-6-chloro-8-fluoro-2-(((S)-1-methylpyrrolidin-2-yl)methoxy)-4-(piperazin-1-yl)quinoline-3-carbonitrile] |
| 0.882 | 0.578 | CN1C[C@H](F)C[C@H]1COc1nc2c(F)c(-c3ccc(F)c4sc(N)nc34)c(Cl)cc2c(N2[C@@H]3CC[C@H]2CNC3)c1C#N [Example 160, 7-(2-amino-7-fluorobenzo[d]thiazol-4-yl)-4-((1R,5S)-3,8-diazabicyclo[3.2.1]octan-8-yl)-6-chloro-8-fluoro-2-(((2S,4R)-4-fluoro-1-methylpyrrolidin-2-yl)methoxy)quinoline-3-carbonitrile] |
